Test results as given in US20090062295A1, “Pharmaceutical Products” (MITSUBISHI PHARMA CORPORATION, priority 2005, published 2009).

Experiment: Influence of pH on content of the compound in solution after storage (Example 1, HPLC)
Type: physicochemical
Details: 1 mg/mL in Britton-Robinson buffer at pH 2, 3, 4, 5 and 6, 1 month storage at 25 or 40° C.
Protocol: A solution was prepared so as to contain the compound at 1 mg/mL of a solvent, and divided as aliquots in clear test tubes and the tubes were tightly sealed. The Britton-Robinson buffer was used as the solvent to prepare sample solutions at pH 2, 3, 4, 5 and 6.
After 1 month storage of these sample solutions under each temperature condition of 25 or 40° C., the contents of the compound were determined by HPLC under the following measurement conditions.
Sample solution: 1 mL of specimen/25 mL of mobile phase
Temperature: Room temperature Mobile phase: 1 M Et3N (adjusted at pH 8 with AcOH):CH3CN:H2O=50:250:700 Flow rate: […]
Loaded volume: 20 μL Quantification method: Corrected area percentage

Cl.O.O.O.O=C1CCC(c2ccc(Nc3ccncc3)cc2)=NN1 [the compound, 6-[4-(4-pyridylamino)phenyl]-4,5-dihydro-3(2H)-pyridazinone hydrochloride trihydrate]
remaining ratio of the compound: highest at pH 5 to 6
